The source of these data is a melting point compilation (Tetko et al.; mined from patent text by program, amines drawn as free bases though some values may be those of a salt).

In the case of `Cc1c(O)ccc(NC2=CC(=O)C(N)=CC2=O)c1C`, the melting point (as a rule, the temperature, or range, at which the solid turns liquid) stood at 320 °C.

The molecule `CCCn1c(=O)c2[nH]c(/C=C/c3cc(OC)c(OCc4ccccc4)c(OC)c3)nc2n(CCC)c1=O` yielded a melting point of 221 °C.

Regarding `NC1CCN(c2nc(Nc3ccc(F)cc3F)c(C(=O)O)cc2F)C1` (stereo not drawn), the melting point was in the range of 249 to 250 °C.

Turning to `COc1cccc(NC(=O)c2cccs2)c1`, the melting point was 139 to 145 °C.

Molecule `C=CCOc1cc2oc(=O)ccc2cc1C` displayed a melting point of 124 to 125 °C.

`O=c1c2ccccc2cc2n1CCCCC2` came in with a melting point of 99 to 101 °C.

Regarding `Nc1ccccc1Cn1[nH]c2ccccc2c1=O`, the melting point was in the range of 204 to 205 °C.

`CCCOc1ccc(F)cc1C(N)=O` displayed a melting point of 114 to 116 °C.

Molecule `COc1c(Br)csc1C(=O)O` had a melting point of 191 to 192 °C.

As to `Cc1c(C(=O)O)oc2c(C(C)(C)C)cc(C(C)(C)C)c(O)c12`, the melting point lay in the range of 241 to 243 °C.

`CCOC(=O)c1ccc(NC(=O)Oc2ccccc2)cc1`: the melting point was 156 to 162 °C.

Take `O=c1cc(-c2cc[nH]n2)oc2ccccc12`: the melting point was in the range of 143 to 144 °C.

`COC(=Cc1ccc(-c2cccc(N(C)C(=O)Nc3ccccc3)c2)cc1)C(=O)O` came in with a melting point of 223 °C.

`COc1ccc2[nH]cc([C@H]3CC[C@@H](N4CCN(c5cccc6[nH]ccc56)CC4)CC3)c2c1` came in with a melting point of 105 to 108 °C.

`COC(=O)CC(=O)c1ccccc1OCc1ccccc1C`: the melting point was 38 to 42 °C.

In the case of `Cc1cccc(N2C(=S)SCC2(C)O)n1` (stereo not drawn), the melting point lay in the range of 150 to 153 °C.

Regarding `COc1c(Cl)ccc(-c2nc(OC)c3c(ncn3C)n2)c1F`, the melting point lay in the range of 191 to 192 °C.

In turn, `CCOC(=O)NC(=O)C1c2ccccc2Oc2ccc(Br)cc21` (racemic) showed a melting point of 203 °C.

In turn, `CN1CCN(C(=O)c2ccc(-c3cnc4c(c3)N(Cc3cc(F)ccc3F)C(=O)C(C)(C)N4)cc2)CC1` yielded a melting point of 204 to 206 °C.

`N#Cc1ccc2c(c1)CS(=O)(=O)NN=C2c1ccc(F)cc1` displayed a melting point of 218 to 219 °C.

Regarding `Oc1nccc2cccnc12`, the melting point lay in the range of 236 to 239 °C.

Molecule `CCC#CC(C)(C)NC(=O)C(CC)Oc1cncc(C(=O)O)c1` (stereo not drawn) registered a melting point of 162 to 164 °C.

In turn, `Nc1ccc(-n2cnc(-c3ccc(C(F)(F)F)cc3)n2)cc1Cl` came in with a melting point of 148 °C.

Turning to `COC(=O)C=CC=CCSc1ccc2ccccc2c1`, the melting point is 73 to 75 °C.

`COc1ccc(CN2CCC(C(=O)NO)(S(=O)(=O)c3ccc(OC)cc3)CC2)cc1`: the melting point came out at 175 °C.

`CCCCOc1c(CNC(=O)OC(C)(C)C)n(CC(C)(C)C)c(=O)c2cc(F)ccc12` came in with a melting point of 149 to 150 °C.

`CC12CCC(O)CC1=CCC1C2CCC2(C)C(c3ccco3)=CCC12` (stereo not drawn) returned a melting point of 105 to 116 °C.

In the case of `OCCC1Cc2ccccc2CN1C(=S)Nc1cccnc1` (racemic), the melting point turned out to be 174 °C.

Regarding `O=C(Nc1cc(S(=O)(=O)N2CCC(O)C2)sc1Cl)c1cnn2c(C(F)F)cc(-c3ccc(C(F)(F)F)cc3)nc12` (racemic), the melting point was 274 °C.

The molecule `C=CC(c1ccccc1)c1cc(C)c2c(c1O)C(=O)CC2` (stereo not drawn) came in with a melting point of 131 to 132 °C.

The molecule `O=C(OC1C2OCC(O2)C(OCc2ccccc2)C1OCc1ccccc1)c1ccccc1` (stereo not drawn) yielded a melting point of 111 to 113 °C.

The molecule `O=S(=O)(c1ccccc1)C(CCCCl)c1ccccc1` (stereo not drawn) came in with a melting point of 110 to 112 °C.

Turning to `COC(=O)NC(CCc1ccccc1)C(=O)O` (stereo not drawn), the melting point is 108 to 110 °C.

Turning to `CNS(=O)(=O)CCc1ccc2[nH]cc(C3CCN(C)CC3)c2c1`, the melting point lay within 156 to 158 °C.

For `COc1ccc(-c2cn(-c3cc4c(=O)n(NS(C)(=O)=O)c(=O)[nH]c4cc3C(F)(F)F)cn2)cc1`, the melting point fell in the range of 293 to 294 °C.

`CCOC(=O)C1=Cc2cc(Cl)cc(-c3nc4ccccc4[nH]3)c2OC1C(F)(F)F` (stereo not drawn) showed a melting point of over 300 °C.

On to `CCOC(=O)c1cn(CC)c2nc(OC)c(N)cc2c1=O`, for which the melting point was 250 to 252 °C.

In turn, `O=C(O)c1cccc2c(=O)cc(-c3cccc(OCc4ccccc4)c3)oc12` had a melting point of 121 to 122 °C.

`CCOC(=O)C1=C(C)Nc2nc(N)nc(N)c2C1c1cc(OC)c(OC)c(OC)c1` (stereo not drawn): the melting point turned out to be 126 °C.

`OCc1c(Cl)cc(Cl)cc1Cl` registered a melting point of 100 to 101 °C.

`Cc1ccc(S(=O)(=O)OCC2COc3ccc(N)c(N)c3O2)cc1` (stereo not drawn) gave a melting point of 178 to 180 °C.

As to `C1=C(c2ccc3c(c2)OCCO3)CCC(N2CCN(Cc3ccccc3)CC2)C1` (stereo not drawn), the melting point is 132 to 133 °C.

The molecule `O=C(O)CCC1CC(O)C(=O)N1` (stereo not drawn) yielded a melting point of 129 to 132 °C.

In turn, `N#Cc1ccc2cc(-c3cccc(O)c3)oc2c1` returned a melting point of 225 to 227 °C.

For the molecule `CCCOCCOc1ccc(-c2ccc3c(c2)C=C(C(=O)O)CCN3Cc2ccccc2)cc1`, the melting point is 139 to 142 °C.

`O=C(c1cccs1)c1cnn2c(-c3cccc(NCc4cccc(Cl)c4)c3)ccnc12`: the melting point fell in the range of 133 to 135 °C.

As to `CCOCCOc1ccc(-c2ccc3c(c2)C=C(C(=O)Nc2ccc(CN(C)C4CCOCC4)cc2)CCS3(=O)=O)cc1Cl`, the melting point lay within 203 to 205 °C.

The molecule `CC1(C)CN(C2CCN(CCc3ccc(F)cc3)CC2)c2cc(CN)ccc21` yielded a melting point of 131 to 133 °C.

For the molecule `CC12CC(c3ccc(C=O)cc3)C3=C4CCC(=O)C=C4CCC3C1CCC2O` (stereo not drawn), the melting point lay within 197 to 200 °C.

`CCn1nc2ccc(Cl)nn2c1=O`: the melting point was in the range of 150 to 152 °C.

Regarding `Oc1cnc2c(c1)CCC(c1ccc(Cl)c(Cl)c1)O2` (stereo not drawn), the melting point was 218 to 219 °C.

Regarding `O=S(=O)(Oc1ccc(Cl)c2cccnc12)C(F)(F)F`, the melting point fell in the range of 80 to 83 °C.

In turn, `CCn1cc(C(=O)O)c(=O)c2cc(F)c(N3C[C@@H](N)[C@@H](C)C3)c(F)c21` (relative stereo) registered a melting point of 232 to 234 °C.

As for `N#Cc1cccc(-c2nc(Nc3cnccn3)sc2-n2cncn2)c1`, the melting point was over 250 °C.

The molecule `COc1cc(C=CC(=O)C=Cc2cc(OC)cc(OC)c2)cc(OC)c1` showed a melting point of 124 to 126 °C.

In turn, `COc1ccc(-c2nc(CNC(=O)NC(C)C)sc2-c2ccc(OC)cc2)cc1` yielded a melting point of 146 to 149 °C.

Turning to `CCOc1cc(-c2ccccc2)nc2nn(C)cc12`, the melting point fell in the range of 170 to 171 °C.

On to `O=C1CCC2CCCC3CC(=O)N1C23` (stereo not drawn), for which the melting point lay in the range of 118 to 120 °C.

Turning to `O=C(O)c1ccc(C(=O)c2ccc(Br)cc2)cc1`, the melting point is 270 to 271 °C.

In the case of `CC(C)(CCCSCCNS(=O)(=O)c1ccc(Cl)cc1)C(=O)O`, the melting point was 107 to 109 °C.

In turn, `COc1cc(O)c(C(=O)C=Cc2ccc(C)o2)c(OC)c1` returned a melting point of 103 °C.

`O=C(CBr)Nc1cc(F)ccc1C(=O)O` had a melting point of 166 to 168 °C.

Take `Cc1c(-c2ccncc2)[nH]c(-c2ccncc2)c1C(=O)OC(C)(C)C`: the melting point lay in the range of 265 to 267 °C.

The molecule `COc1ccc(N2CCN(c3c(C)c(C)c4c(c3C)CC(C)(CN3CCOCC3)O4)CC2)cc1` (stereo not drawn) came in with a melting point of 137 to 142 °C.

`Fc1ccc(C23COC(c4ccc(Cl)cc4)(OC2)OC3)cc1` showed a melting point of 251 to 252 °C.

With `O=C/C=C/c1cccc(Cl)c1Cl`, the melting point lay within 94 to 95 °C.

The molecule `Cc1cc(CC(=O)O)cc2c1NC(C(F)(F)F)CC2` (stereo not drawn) displayed a melting point of 135 to 136 °C.

With `Cc1c(C)c(N2C(=O)c3cc(Cl)c(Cl)cc3C2=O)c(C)c2c1OC(C)(C)C2c1ccccc1` (stereo not drawn), the melting point is 178 to 181 °C.

`CC1=CC(C)(C)Nc2ccc(O)cc21`: the melting point was 182 to 184 °C.

In the case of `CC(C)(C)OC(=O)NC(CC(O)CNC(Cc1ccccc1)C(O)CNC(=O)OCc1ccccc1)c1ccccc1` (stereo not drawn), the melting point was in the range of 120 to 121 °C.

`Nc1ccc(CCC(=O)Nc2cnc3ccccc3c2)cc1[N+](=O)[O-]` gave a melting point of 220 °C.

As to `CC#CC1CCC(c2ccc(C3CCC(CCC)CC3)cc2)CC1` (stereo not drawn), the melting point worked out at 134 °C.

In turn, `O=C(N[C@@H](CO)C(=O)NCCc1ccccc1)c1ccc(C(=O)c2cccnc2)cc1` had a melting point of 85 to 90 °C.

`Oc1cccc2c1nc(-c1c(F)cccc1F)n2Cc1c(F)cccc1F` came in with a melting point of 257 to 259 °C.

`CCCn1nc(-c2ccc(Cl)c(Cl)c2)c(-n2ccnc2)c1SC` displayed a melting point of 91 to 93 °C.

`OCCCCCCCCCCCCCCCCc1c[nH]c2ccccc12` showed a melting point of 79 to 80 °C.

In turn, `O=C1CC(C(F)(F)F)CC(=O)N1c1cc(OCC=C(Cl)Cl)c(Cl)cc1F` showed a melting point of 106 to 108 °C.

On to `COc1ccc2c(c1OC)CCC1CNC(=O)C21` (stereo not drawn), for which the melting point lay within 185 to 187 °C.

In turn, `CCCC(=O)NN=C(C)C1CCC=C(C)O1` (stereo not drawn) had a melting point of 72.8 °C.

The molecule `O=C(N[C@@H]1C(=O)N[C@@H]1CO)OCc1ccccc1` yielded a melting point of 98 to 100 °C.

`COc1cc2c(cc1OC)-c1c(OC)c(OC)cc3ccnc(c13)C2=O` yielded a melting point of 229 to 230 °C.

`Cc1ccc(S(=O)(=O)n2c(CCCC(=O)O)cc3nc(Cl)ccc32)cc1` showed a melting point of 172 °C.

`Cn1c(=O)c2conc2n(C)c1=O`: the melting point lay within 170 to 171 °C.

For `CC(C)(CO)Cc1ccc2cc(CC(C)(C)CO)ccc2c1`, the melting point fell in the range of 162 to 165 °C.

The molecule `CC(=O)Oc1c2c(c3ccccc3c1OC(=O)CNC(=O)OC(C)(C)C)OC(C)(C)CC2` showed a melting point of 177 °C.

In turn, `COC(=O)/C(=C\O)c1ccccc1C` came in with a melting point of 48 to 49 °C.

In turn, `CCOc1c(C=O)cc2c3c(cccc13)-c1ccccc1-2` returned a melting point of 118 to 119 °C.

The molecule `CN(C)Cc1ccc(CSCCNc2nc(N)n[nH]2)o1` had a melting point of 76 to 78.5 °C.

Molecule `O=Cc1c2ccc(Cl)cc2c(Cl)c2ccc(Cl)cc12` had a melting point of 269 to 271 °C.

With `COc1ccc(C)cc1NC(=O)Nc1ccc(C2CCN(C(=O)Nc3cc(OCCO)ccc3Cl)CC2)cc1`, the melting point lay within 202 to 205 °C.

Molecule `O=[N+]([O-])c1ccc(N2CCN(Cc3ccccc3)S2(=O)=O)cc1` yielded a melting point of 164 to 165 °C.

Consider `OC1(CSc2ccc(-c3ccccc3)cc2)CN2CCC1CC2` (stereo not drawn), for which the melting point fell in the range of 145 to 147 °C.

`c1ccc(CCOCCOc2ccc(OCc3ccccc3)cc2)cc1` came in with a melting point of 46 to 49 °C.
